Data: US20250042929A1, “NEW CRYSTAL FORM OF TRISACCHARIDE” (SHANDONG HENGLU BIOTECH. CO., LTD., priority 2022, published 2025)

Legend:
Type in all cases: physicochemical
[1] = Hygroscopicity study in constant temperature and humidity chamber; conditions: for Moisture rate: Example 9, after 5 days; for Added weight: about 1 g sample; for Before the experiment, appearance: before placing in chamber
Description: • Step 1: Preparation of glass petri dishes
One day before the experiment, place glass petri dishes (without lids) in a constant temperature and humidity chamber set at 25±1° C. and 75±2% relative humidity for 4 hours. Take out the dishes, accurately weigh, and repeat until consistent weight readings are obtained. Record the data in Table 3. • Step 2: Weigh the amorphous LNTII powder and LNTII crystalline form A from Example 1 separately, place them in the pre-weighed petri dishes from Step 1 in a constant temperature and humidity chamber set at 25° C. and 75% relative humidity. After 5 days, examine any physical changes, reweigh the samples, and calculate their hygroscopicity. Record the results in Tables 2 and 3. A comparison of the physical appearances before and after moisture exposure are depicted in FIG. 5 and FIG. 6.
Replicating the procedure outlined in Example 8, evaluate the LNTII crystalline form A samples obtained from Examples 1-7. Place the samples in pre-weighed petri dishes within a constant temperature and humidity chamber at 25° C. and 75% relative humidity. After 5 days, inspect for any changes in appearance, weigh the samples, and calculate their hygroscopicity. Document the findings in Table 4.

[2] = Stability study, sealed in aluminum-plastic composite film, 40° C. and 75% relative humidity
Description: In this invention, the quantification of LNTII is performed using high-performance liquid chromatography (HPLC) under the conditions listed below:
Chromatographic column: Asahipak NH2P-504E, 4.6 mm×250 mm, 5 μm particle size; mobile phase composition: acetonitrile to water in a ratio of 65:35; flow rate: 1 mL/min; detection method: UV-VIS detector; wavelength: 210 nm; column temperature: 30° C.; injection volume: 10 μL; total run time: 30 minutes.
Separately weigh 10 g of amorphous LNTII powder produced in Examples 1-7. Seal each sample with aluminum-plastic composite film. Store all samples in a constant temperature and humidity chamber at 40° C. and 75% relative humidity. Retrieve samples at the end of January, February, and March to assess the LNTII content and observe any changes in appearance. Record the outcomes in Table 5.

[3] = as above; conditions: 3 months
[4] = End of 1 month, 40° C., 75% relative humidity, HPLC
[5] = End of 2 months, 40° C., 75% relative humidity, HPLC
[6] = End of 3 months, 40° C., 75% relative humidity, HPLC
[7] = Example 8, 25° C., 75% relative humidity, 5 days

| Moisture rate ([1]; 25° C., 75% relative humidity) [%] | Content ([2]; Day 0, LNTII content by HPLC) [%] | Content [2, 4] [%] | Content [2, 5] [%] | Content [2, 6] [%] | Structure (SMILES) | other results |
| --- | --- | --- | --- | --- | --- | --- |
| 12.87 | 97.98 | 98.02 | 97.97 | 97.96 | CC(=O)NC1C(O)[C@H](O)C(CO)O[C@H]1OC1C(O)[C@H](O[C@H]2C(CO)OC(O)C(O)C2O)OC(CO)[C@@H]1O (stereo partly shown) [Example 1 Crystalline form A, Lacto-N-triose II] |  |
| 13.26 | 98.18 | 98.15 | 98.22 | 98.23 | CC(=O)NC1C(O)[C@H](O)C(CO)O[C@H]1OC1C(O)[C@H](O[C@H]2C(CO)OC(O)C(O)C2O)OC(CO)[C@@H]1O (stereo partly shown) [Example 2 Crystalline form A, Lacto-N-triose II] |  |
| 14.09 | 97.87 | 97.90 | 97.93 | 97.88 | CC(=O)NC1C(O)[C@H](O)C(CO)O[C@H]1OC1C(O)[C@H](O[C@H]2C(CO)OC(O)C(O)C2O)OC(CO)[C@@H]1O (stereo partly shown) [Example 3 Crystalline form A, Lacto-N-triose II] |  |
| 13.61 | 92.30 | 92.32 | 92.33 | 92.27 | CC(=O)NC1C(O)[C@H](O)C(CO)O[C@H]1OC1C(O)[C@H](O[C@H]2C(CO)OC(O)C(O)C2O)OC(CO)[C@@H]1O (stereo partly shown) [Example 4 Crystalline form A, Lacto-N-triose II] |  |
| 13.79 | 92.57 | 92.61 | 92.51 | 92.64 | CC(=O)NC1C(O)[C@H](O)C(CO)O[C@H]1OC1C(O)[C@H](O[C@H]2C(CO)OC(O)C(O)C2O)OC(CO)[C@@H]1O (stereo partly shown) [Example 5 Crystalline form A, Lacto-N-triose II] |  |
| 13.32 | 91.98 | 91.94 | 91.84 | 91.93 | CC(=O)NC1C(O)[C@H](O)C(CO)O[C@H]1OC1C(O)[C@H](O[C@H]2C(CO)OC(O)C(O)C2O)OC(CO)[C@@H]1O (stereo partly shown) [Example 6 Crystalline form A, Lacto-N-triose II] |  |
| 12.74 | 98.58 | 98.56 | 98.48 | 98.56 | CC(=O)NC1C(O)[C@H](O)C(CO)O[C@H]1OC1C(O)[C@H](O[C@H]2C(CO)OC(O)C(O)C2O)OC(CO)[C@@H]1O (stereo partly shown) [Example 7 Crystalline form A, Lacto-N-triose II] |  |
|  |  |  |  |  | CC(=O)NC1C(O)[C@H](O)C(CO)O[C@H]1OC1C(O)[C@H](O[C@H]2C(CO)OC(O)C(O)C2O)OC(CO)[C@@H]1O (stereo partly shown) [LNTII amorphous powder, Lacto-N-triose II, reference compound] | Moisture rate (moisture absorption rate = added weight/sample weight × 100%) [1, 7]: 29.47%; Day 5, appearance ([1]; Example 8, 25° C., 75% relative humidity, 5 days, open petri dish): Light yellow, paste; Added weight [1, 7]: 0.2951 g; Before the experiment, appearance ([1]; Example 8): Off-white powder; Content ([2]; Day 0, LNTII content by HPLC, listed as Amorphous LNTII powder): 91.24%; Content ([2]; End of 1 month, 40° C., 75% relative humidity, HPLC, listed as Amorphous LNTII powder): 91.01%; Content ([2]; End of 2 months, 40° C., 75% relative humidity, HPLC, listed as Amorphous LNTII powder): 90.86%; Content ([2]; End of 3 months, 40° C., 75% relative humidity, HPLC, listed as Amorphous LNTII powder): 90.01%; Content and appearance throughout the stability study, in words ([3]; listed as amorphous LNTII powder): decreases the content and the color gradually fades to pale yellow |
|  |  |  |  |  | CC(=O)NC1C(O)[C@H](O)C(CO)O[C@H]1OC1C(O)[C@H](O[C@H]2C(CO)OC(O)C(O)C2O)OC(CO)[C@@H]1O (stereo partly shown) [LNTII form A, Lacto-N-triose II] | Stability (from appearance changes and hygroscopicity results), in words ([1]; 25° C., 75% relative humidity, 5 days, crystalline form A compared with amorphous powder): superior to the amorphous powder; Moisture rate (moisture absorption rate = added weight/sample weight × 100%) [1, 7]: 14.17%; Added weight [1, 7]: 0.1418 g; Before the experiment, appearance ([1]; Example 8): Off-white; Content and appearance throughout the stability study, in words ([3]; listed as LNTII crystalline form A): maintains its content and appearance throughout the stability study |
